Data set [1] has as its system rat uterine decidualization. The data set is described as follows: Rat decidualization assay. The format is in vivo. Conditions: for Decidualization IC50: half-maximal decrease in EC50 progesterone induced decidual response; for Estimated EC50 for uterine wet weight (decidual response) / Estimated average EC50 (decidual response): s.c.; for Estimated EC50 for uterine wet weight (decidual response): individual studies; for Estimated average EC50 (decidual response): average of dose-response curves. How it is done:
1. Rat Decidualization Assay
b. Animals (RACUC Protocol #5002)
The animals are treated once daily for seven days.
Uteri are removed and trimmed of fat.
Body weight: Mean total animal body weight (default-kg)
Decidual response: [(D-C)/C]x100%

The next data set has as its system T47D cells. The data set is described as follows: T47D cell proliferation assay (BrdU incorporation). Conditions: agonist mode, individual studies, read-out: Estimated EC50, BrdU incorporation. The format is cell-based. The procedure: 3. T47D Cell Proliferation Assay
The objective of this assay is the determination of progestational and antiprogestational potency by using a cell proliferation assay in T47D cells. A compound's effect on DNA synthesis in T47D cells is measured.
DMEM:F12 (1:1) (GIBCO, BRL) supplemented with 10% (v/v) fetal bovine serum (not heat-inactivated), 100U/ml penicillin, […] streptomycin, and 2 mM GlutaMax (GIBCO, BRL).
Minimum Essential Medium (MEM) (#51200-038GIBCO, BRL) phenol red-free supplemented with 0.5% charcoal stripped fetal bovine serum, 100U/ml penicillin, 200 mg/ml streptomycin, and 2 mM GlutaMax (GIBCO, BRL).
Stock T47 D cells are maintained in growth medium. For BrdU incorporation assay, cells are plated in 96-well plates (Falcon, Becton Dickinson Labware) at 10,000 cells/well in growth medium. […]
At the end of BrdU labeling, the medium is removed and BrdU incorporation is measured using a cell proliferation ELISA kit (#RPN 250, Amersham Life Science) according to manufacturer's instructions. […] Then 25 μl of 1 M sulfuric acid is added to each well to stop color reaction and optical density is read in a plate reader at 450 nm within 5 min.
Square root-transformed data are used for analysis of variance and nonlinear dose response curve fitting for both agonist and antagonist modes. […] EC50 or IC50 values are calculated from the retransformed values. […]

Where [2] appears, read: read-out: Decidualization, percentage inhibition at the dose specified.

“And” between values parts separate entries of the source, which are not always exact repeats. Equal values may be shown once. Read-outs that look alike come from different tables or passages of the source.

Broadly, the inhibition is the change of the read-out against control, counted positive when it falls. By melting point is commonly meant the temperature of the solid-liquid transition.

For the compound `CC1(C)OC(=O)Nc2ccc(-c3cc(F)cc([N+](=O)[O-])c3)cc21` [Compound 6, 6-(3-Fluoro-5-nitro-phenyl)-4,4-dimethyl-1,4dihydro-benzo[d][1,3]oxazin-2-one], the melting point was 260 to 261 °C. Further, the inhibition at 1 mg/kg in data set [1] (setting [2]) was found to be 50%.
`CC1(C)OC(=O)Nc2ccc(-c3cc(F)cc(Br)c3)cc21` [Compound 8, 6-(3-Bromo-5-fluorophenyl)-4,4-dimethyl-1,4-dihydrobenzo[d][1,3]oxazin-2-one] displayed a melting point of 182 to 183 °C. The inhibition at 3 mg/kg in data set [1] (setting [2]) turned out to be 50%.
Consider `CC1(C)OC(=O)Nc2ccc(-c3cc(F)cc(C(F)(F)F)c3)cc21` [Compound 2, 6-(3-Fluoro-5-trifluoromethyl-phenyl)-4,4-dimethyl-1,4-dihydro-benzo[d][1,3]oxazin-2-one], for which the melting point was in the range of 207 to 208 °C. Moreover, the inhibition at 1 mg/kg in data set [1] (setting [2]) worked out at 50%.
`CC1(C)OC(=O)Nc2ccc(-c3cc(C#N)ccc3F)cc21` [Compound 5, 3-(4,4-Dimethyl-2-oxo-1,4-dihydro-2H-benzo[d][1,3]oxazin-6-yl)-4-fluoro-benzonitrile] came in with a melting point of 229 to 230 °C. Also, the inhibition at 1 mg/kg in data set [1] (setting [2]) amounted to 60%.
For `CC1(C)OC(=O)Nc2ccc(-c3cccc(Br)c3)cc21` [Compound 13], the melting point lay within 174 to 175 °C. Further, the “Decidualization IC50” value in data set [1] came to 3 mg/kg.
For the compound `N#Cc1ccc(-c2ccc3c(c2)C2(CCCCC2)OC(=O)N3)s1` [Compound 11, 5-(1,2-Dihydro-2-oxospiro[4H-3,1-benzoxazine-4,1-cyclohexan]-6-yl)-2-thiophenecarbonitrile], the melting point was 243 to 245 °C. In data set [1] (dose 10 mg/kg, read-out: Decidualization, percentage inhibition at the dose specified), the inhibition at 10 mg/kg was 50%.
Take `C[C@H](O)C(=O)[C@@]1(C)CC[C@H]2[C@@H]3CCC4=CC(=O)CCC4=C3CC[C@@]21C` [Trimegestone]: in the data set with T47D cells, the EC50 was 0.017 nM and 0.014 nM and 0.019 nM.
Compound `CC1(C)OC(=O)Nc2ccc(-c3cc(Cl)cc(Cl)c3)cc21` [Compound 4, 6-(3,5dichloro-phenyl)-4,4-dimethyl-1,4-dihydrobenzo-[d][1,3]oxazin-2-one] displayed a melting point of 245 to 246 °C. Besides, the inhibition at 1 mg/kg in data set [1] (setting [2]) is 60%.
In turn, `CC1(C)OC(=O)Nc2ccc(-c3cccc(F)c3)cc21` [Compound 3, 6-(3-Fluoro-phenyl)-4,4-dimethyl-1,4-dihydro-benzo[d][1,3]-oxazin-2-one] had a melting point of 181 to 182 °C. Besides, the inhibition at 3 mg/kg in data set [1] (setting [2]) came out at 80%.
Turning to `CC1(C)OC(=O)Nc2ccc(-c3ccc(C#N)s3)cc21` [Compound 12, 5-(4,4-Dimethyl-2-oxo-1,4-dihydro-2H-benzo[d][1,3]oxazin-6-yl)-thiophene-2-carbonitrile], the melting point was 264 to 266 °C. Moreover, the “Decidualization IC50” value in data set [1] is 3.34 ± 0.22 mg/kg.
As for `CC(=O)O[C@]1(C(C)=O)CC[C@H]2[C@@H]3C[C@H](C)C4=CC(=O)CC[C@]4(C)[C@H]3CC[C@@]21C` [MPA, medroxyprogesterone acetate, reference compound], in the data set on T47D cells (Homo sapiens, T47D), the EC50 is 0.019 nM. The “Estimated EC50 for uterine wet weight (decidual response)” value (“Estimated EC50 for uterine wet weight” for short) in data set [1] was 0.42 mg/kg and 0.39 mg/kg (2×).
`CC1(C)OC(=O)Nc2ccc(-c3cncc(Br)c3)cc21` [Compound 16, 6-(5-Bromo-pyridin-3-yl)-4,4-dimethyl-1,4-dihydro-benzo[d][1,3]oxazin-2-one] displayed a melting point of 211 to 212 °C. Further, the inhibition at 3 mg/kg in data set [1] (setting [2]) was determined as 50%.
Consider `Cc1cc(C#N)sc1-c1ccc2c(c1)C1(CCCCC1)OC(=O)N2` [Compound 10, 5-(1,2-Dihydro-2-oxospiro[4H-3,1-benzoxazine-4,1-cyclohexan]-6-yl)-4-methyl-2-thiophenecabonitrile], for which the “Decidualization, percentage inhibition at the dose specified” value in data set [1] (dose 10 mg/kg) was 50% @ 1O.
Take `CC(=O)[C@H]1CC[C@H]2[C@@H]3CCC4=CC(=O)CC[C@]4(C)[C@H]3CC[C@]12C` [Progesterone, reference compound]: in data set [1], the “Estimated average EC50 (decidual response)” value is listed as 5.62 mg/kg and the “Estimated EC50 for uterine wet weight” value was 5.50 mg/kg.
Take `CC1(C)OC(=O)Nc2ccc(-c3ccc(F)c(Cl)c3)cc21` [Compound 20, 6-(3-Chloro-4-fluoro-phenyl)-4,4-dimethyl-1,4-dihydro-benzo[d][1,3]oxazin-2-one]: the “Decidualization IC50” value in data set [1] came to 1 mg/kg.
The compound `N#Cc1cc(F)cc(-c2ccc3c(c2)C(C2CC2)(C2CC2)OC(=O)N3)c1` [Compound 15, 3-(4,4Dicyclopropyl-2-oxo-1,4-dihydro-2H-benzo[d][1,3]oxazin-6-yl)5-fluoro-benzonitrile] registered a melting point of 250 to 252 °C. In addition, the “Decidualization IC50” value in data set [1] is 3 mg/kg.
As for `C#C[C@]1(O)CC[C@H]2[C@@H]3CCC4=CC(=O)CC[C@@H]4[C@H]3CC[C@@]21CC` [Levonorgestrel, reference compound], in data set [1], the “Estimated average EC50 (decidual response)” value is 0.10 mg/kg; the “Estimated EC50 for uterine wet weight” value was 0.08 mg/kg and 0.12 mg/kg and 0.09 mg/kg (2×).

Source of the values: patent US6444668B1 (Wyeth, priority 1999, dated 2002).
